The values that follow come from US20020091086A1, “Peptides that block viral infectivity and methods of use thereof” (priority 1999, published 2002).

The test system of one series is GPG-deleted mutant mp10. Kind of series: infectivity in MT-2 cells, p24 ELISA, GPG-deleted mutant mp10. The format is cell-based, HIV-1. As for the experimental part:
Accordingly, the ability of GPG-NH2 to inhibit the infectivity of wild-type and V3-loop deletion mutants (GPG domain) in MT-2 cells was determined. In these experiments, approximately 200,000 MT-2 cells were infected with HIV-1Bru wild-type and GPG-deleted mutants mp8 and mp10 at 25 TCID50 to test the inhibitory effect of GPG-NH2 The MT-2 cells were resuspended in 1 ml of RPMT 1640 medium supplemented with 10% (v/v) heat-inactivated fetal bovine serum (FBS, GIBCO), penicillin (100μ/ml), streptomycin (100μ/ml) and Polybrene (Sigma 2 μg/ml) with or without the presence of GPG-NH2 at concentration 20 of μM and 100 μM. Thereafter, viruses were added at 25 TCID50 in a volume of 20-30 μl. Cells were incubated with virus at 37° C. for 16 hr then loosely pelleted by centrifugation at 170×g for 7 minutes. The cells were then washed three times in RPMI medium without peptides at room temperature by cell sedimentation at 170×g for 7 minutes as above. After the final wash, the cells were resuspended in RPMI culture medium in 24-well plate (Costar corporation) then kept at 37° C. in 5% CO2 with humidity. Culture supernatants were collected when medium was changed at day 4, 7, 11 and 14 post infection. To monitor the replication of virus, HIV-1 p24 antigen protein in the supernatants from day 7 and 14 was assayed by a ELISA kit (Abbott Laboratories) which has a linear dose-response range from 20 pg to 640 pg of p24 per ml and the p24 amount can be determined with aid of the regression line.
(In an ELISA, binding on a coated surface is turned into a signal by an enzyme label.)

For the next series, the system named is influenza. Description: inhibition of influenza virus. It is filed as cell-based.
The test system of the next series is HIV-1 RNA. Kind of series: Northern blot of HIV-1 RNA in infected H-9 cells. It is filed as cell-based. How it is done:
To study proviral DNA and viral RNA synthesis, DNA and RNA from HIV-1 infected H-9 cells cultured in the presence of a small peptide were prepared at various time points (0-48 h).
By Northern blot analysis, three RNA bands (9.2, 4.3, 2.0 kb) were detected 24-48 h after infection. The 9.2 kb RNA acts as both the genomic RNA and as the mRNA for the gag and pol genes. The 4.3 kb singly-spliced RNA represents at least the env gene, and the multiply-spliced 2 kb RNA encodes for the regulatory genes.

Series [1] is described as follows: single intravenous dose toxicity in adult mice. The format is in vivo. Particulars: intravenous injection in the tail vein, up to 1 g per kilo bodyweight. As for the experimental part: (§1) In this example, the results from several in vivo toxicology studies on small peptides administered in large doses to rodents are presented. In a first experiment, a large single dose of small peptide was delivered to mice and the toxic effects were analyzed. […] In a second experiment, several doses of varying amounts of a small peptide were delivered to mice for almost three weeks. Groups of mice (five mice in each group) were given intraperitoneal injections of GPG-NH2 (0.01, 0.1 and 1 g per kilo bodyweight and day, respectively) starting at an age of 6 days. Daily injections were continued for 18 days. […] In a similar experiment, a four week toxicology study of GPG-NH2 was performed by Scantox A/S in Denmark. GPG-NH2 was given orally to rats at doses up to 1 g per kilo bodyweight per day for twenty eight days.

Series [2] is described as follows: four week oral toxicology study in rats. Particulars: orally up to 1 g per kilo bodyweight per day, twenty eight days. The format is in vivo. How it is done: as §1
For the next series, the system named is various cell lines. Description: ratio of CC50/IC50 in vitro. It is filed as cell-based. How it is done:
The in vitro 50% cytotoxic concentrations (CC50) of various cell lines was also assessed. Accordingly, different concentrations of GPG-NH2, up to 40 mM, was supplemented into the medium culture of T-cell lines HUT78, H9, CEM-SS, MT-2 and (non) induced ACH-2, as well as, the macrophage derived cell lines […], THP-1 and (non) induced U-1 cells. After 3 days of incubation, the number of cells were counted.

Molecules are shown by their SMILES. Peptide text beside a SMILES is read from it.

As for `NCC(=O)N1CCC[C@H]1C(=O)NCC(N)=O` [GPG-NH2, glycyl-prolyl-glycine amide] (H-Gly-Pro-Gly-NH2), the p24 in the series on GPG-deleted mutant mp10 (GPG 20 μM, Day 7) amounted to 1560 pg/mL; with GPG-deleted mutant mp10 (GPG 20 μM, Day 14), 51500 pg/mL; in the series on GPG-deleted mutant mp10 (GPG 100 μM, Day 7) it was 173 pg/mL; in the series with GPG-deleted mutant mp10 (GPG 100 μM, Day 14) it was 47700 pg/mL. The reduction (%) in the series on GPG-deleted mutant mp10 (GPG 20 μM, Day 7) is 50%; in the series on GPG-deleted mutant mp10 (GPG 20 μM, Day 14), 89%; in the series with GPG-deleted mutant mp10 (GPG 100 μM, Day 7), 94%; in the series on GPG-deleted mutant mp10 (GPG 100 μM, Day 14), 90%. In the series on influenza, the “inhibition of influenza virus” value is “failed inhibit either influenza or polio viruses”. Further, the “expression of HIV-1 RNAs (9.2, 4.3, 2.0 kb)” value with HIV-1 RNA (20 μM, up to 48 h post infection) was “no inhibitory effect”. For the same compound, in the series on HIV-1 RNA (200 μM and 2,000 μM, 48 h after infection), the “HIV-1 RNA” value is recorded as “a reduction of HIV-1 RNA was noticed”. The toxic effects result in series [1] is given as “no apparent toxic effects”. Also, the signs of toxicity result in series [2] is on record as “No signs of toxicity”. Besides, the “ratio of CC50/IC50 in vitro” value in the series with various cell lines is listed as > 10^4.
